The values below come from article PMC3243944 (Biopolymers, 2011).

What is called solubility is the dissolved amount per volume that the medium holds. The low end stands for little dissolved substance, the high end for much dissolved substance.

Where no end group is shown, it is not given here.

The nature of series [1]: Solubility in aqueous buffer. It counts as physicochemical.
Series [2] deals with 5-helix bundle (5HB) protein construct derived from the hRSV fusion (F) protein. Conditions: protein-based (5HB) FP screening assay; cited from earlier work.

ISQVNEKINQSLAFIRKSDE [C20] had a solubility in series [1] of less than 2000 µg/mL. Also, the “Binding affinity to the 5HB” value in series [2] was “low micromolar”.
